Measured values taken from ChEMBL document CHEMBL3508140 (2016).

How the values were obtained:
[1] = Recovery of 7-deoxy epirubicinol aglycone following intraperitoneal epirubicin at 4 mg.Kg-1 dose in mouse; assay type: ADME, organism-based, CD-1, Plasma; settings: in vivo, ip
[2] = Recovery of 7-deoxy epirubicinol aglycone following intravenous epirubicin at 4 mg.Kg-1 dose in rat; assay type: ADME, organism-based, SD, Plasma; settings: in vivo
[3] = Recovery of 7-deoxy epirubicinol aglycone following intraperitoneal epirubicin at 4 mg.Kg-1 dose in hamster; assay type: ADME, organism-based, Cricetulus griseus, Plasma; settings: chinese hamster, in vivo, ip
[4] = Recovery of 7-deoxy epirubicinol aglycone following intravenous epirubicin at 4 mg.Kg-1 dose in rabbit; assay type: ADME, organism-based, Oryctolagus cuniculus, New Zealand White, Plasma; settings: in vivo
[5] = Recovery of 7-deoxy epirubicinol aglycone following intravenous epirubicin at 1.5 mg.Kg-1 dose in man; assay type: ADME, organism-based, Plasma; settings: human, in vivo
[6] = Detection of 7-deoxydoxorubicinol aglycone in plasma following single intravenous epirubicin at 10 mg.Kg-1 dose in female mouse bearing colon tumor; assay type: ADME, organism-based, BALB/c; settings: in vivo
[7] = Detection of 7-deoxydoxorubicinol aglycone in plasma following single intravenous doxorubicin at 10 mg.Kg-1 dose in female mouse bearing colon tumor; assay type: ADME, organism-based, BALB/c; set-up: dose 10 mg.Kg-1, dosed compound id 2.46809e+06, dosed compound name Doxorubicin, gender F, regimen Single, route intravenous, sampling time 48 h; settings: in vivo
[8] = Detection of 7-deoxydoxorubicinol aglycone in heart following single intravenous epirubicin at 10 mg.Kg-1 dose in female mouse bearing colon tumor; assay type: ADME, organism-based, BALB/c; settings: in vivo
[9] = Detection of 7-deoxydoxorubicinol aglycone in heart following single intravenous doxorubicin at 10 mg.Kg-1 dose in female mouse bearing colon tumor; assay type: ADME, organism-based, BALB/c; set-up: dose 10 mg.Kg-1, dosed compound id 2.46809e+06, dosed compound name Doxorubicin, gender F, regimen Single, route intravenous, sampling time 48 h; settings: in vivo
[10] = Detection of 7-deoxydoxorubicinol aglycone in tumor following single intravenous epirubicin at 10 mg.Kg-1 dose in female mouse bearing colon tumor; assay type: ADME, organism-based, BALB/c, Neoplasm; settings: in vivo
[11] = Detection of 7-deoxydoxorubicinol aglycone in tumor following single intravenous doxorubicin at 10 mg.Kg-1 dose in female mouse bearing colon tumor; assay type: ADME, organism-based, BALB/c, Neoplasm; set-up: dose 10 mg.Kg-1, dosed compound id 2.46809e+06, dosed compound name Doxorubicin, gender F, regimen Single, route intravenous, sampling time 48 h; settings: in vivo
[12] = AUC values (0-48 h) of 7-deoxy doxorubicin-aglycone in plasma following single intravenous doxorubicin at 10 mg.Kg-1 dose in female mouse bearing colon tumor; assay type: ADME, organism-based, BALB/c; set-up: time < 48 hr, dose 10 mg.Kg-1, dosed compound id 2.46809e+06, dosed compound name Doxorubicin, gender F, regimen Single, route intravenous, sampling time 48 h; settings: in vivo
[13] = AUC values (0-48 h) of 7-deoxy doxorubicin-aglycone in heart following single intravenous doxorubicin at 10 mg.Kg-1 dose in female mouse bearing colon tumor; assay type: ADME, organism-based, BALB/c; set-up: time < 48 hr, dose 10 mg.Kg-1, dosed compound id 2.46809e+06, dosed compound name Doxorubicin, gender F, regimen Single, route intravenous, sampling time 48 h; settings: in vivo
[14] = AUC values (0-48 h) of 7-deoxy doxorubicin-aglycone in tumor following single intravenous doxorubicin at 10 mg.Kg-1 dose in female mouse bearing colon tumor; assay type: ADME, organism-based, BALB/c, Neoplasm; set-up: time < 48 hr, dose 10 mg.Kg-1, dosed compound id 2.46809e+06, dosed compound name Doxorubicin, gender F, regimen Single, route intravenous, sampling time 48 h; settings: in vivo
[15] = AUC values (0-48 h) of 7-deoxy epirubicinol aglycone in plasma following single intravenous epirubicin at 10 mg.Kg-1 dose in female mouse bearing colon tumor; assay type: ADME, organism-based, BALB/c; settings: in vivo
[16] = AUC values (0-48 h) of 7-deoxy epirubicinol aglycone in heart following single intravenous epirubicin at 10 mg.Kg-1 dose in female mouse bearing colon tumor; assay type: ADME, organism-based, BALB/c; settings: in vivo
[17] = AUC values (0-48 h) of 7-deoxy epirubicinol aglycone in tumor following single intravenous epirubicin at 10 mg.Kg-1 dose in female mouse bearing colon tumor; assay type: ADME, organism-based, BALB/c, Neoplasm; settings: in vivo

- Compound recovery [1]: 20 10^-9M
- Compound recovery [2]: 4.2 10^-9M
- Compound recovery [3]: 21 10^-9M
- Compound recovery [4]: 4.2 10^-9M
- Compound recovery [5]: 25 10^-9M
- Compound recovery [6]: OUTCOME = Observed
- Compound recovery [7]: OUTCOME = Observed
- Compound recovery [8]: OUTCOME = Observed
- Compound recovery [9]: OUTCOME = Observed
- Compound recovery [10]: OUTCOME = Observed
- Compound recovery [11]: OUTCOME = Observed
- AUC [12]: 83.3 nmol·min/mL
- AUC [13]: 218 nmol·min/g
- AUC [14]: 204 nmol·min/g
- AUC [15]: 53.9 nmol·min/mL
- AUC [16]: 66 nmol·min/g
- AUC [17]: 99 nmol·min/g
SMILES: COc1cccc2c1C(=O)c1c(O)c3c(c(O)c1C2=O)C[C@@](O)(C(O)CO)CC3 (some centres not stated)
